Data as given in PubChem BioAssay AID248 (DTP/NCI, 2004).
Where “and” joins values, the source holds several entries; their conditions need not be identical. Equal values may be shown once. Toxic doses and inconclusive results are not listed. Rule as the data show it: active = T/C of 150% or more; inactive = T/C below 125%. Peptide text beside a SMILES is read from it. * marks the point of attachment. Cbz = O=C(OCc1ccccc1)*

System: L1210 leukemia ip in BDF1 mice, survival T/C
Assay: NCI In Vivo Anticancer Drug Screen. Data for tumor model L1210 Leukemia (intraperitoneal) in B6D2F1 (BDF1) mice
Conditions: endpoint: mean survival time, higher = longer survival
In short: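 Survival endpoint. Drug-treated group vs vehicle group, expressed as T divided by C. Tumor passaged by transplantation.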

[1] = dose: 12.5 mg/kg/injection, schedule: Q01DX009 (ip), vehicle: saline
[2] = dose: 12.5 mg/kg/injection, schedule: Q04DX003 (ip), vehicle: saline
[3] = dose: 25.0 mg/kg/injection, schedule: Q04DX003 (ip), vehicle: saline
[4] = dose: 50.0 mg/kg/injection, schedule: Q04DX003 (ip), vehicle: saline
[5] = dose: 100.0 mg/kg/injection, schedule: Q04DX003 (ip), vehicle: saline
[6] = dose: 50.0 mg/kg/injection, schedule: Q04DX002 (ip), vehicle: Klucel (hydroxypropylcellulose) (HPC)
[7] = dose: 100.0 mg/kg/injection, schedule: Q04DX002 (ip), vehicle: Klucel (hydroxypropylcellulose) (HPC)
[8] = dose: 200.0 mg/kg/injection, schedule: Q04DX002 (ip), vehicle: Klucel (hydroxypropylcellulose) (HPC)
[9] = dose: 400.0 mg/kg/injection, schedule: Q04DX002 (ip), vehicle: Klucel (hydroxypropylcellulose) (HPC)
[10] = dose: 100.0 mg/kg/injection, schedule: Q01DX009 (ip), vehicle: saline with Tween-80
[11] = dose: 200.0 mg/kg/injection, schedule: Q01DX009 (ip), vehicle: saline with Tween-80
[12] = dose: 100.0 mg/kg/injection, schedule: Q04DX003 (ip), vehicle: saline with Tween-80
[13] = dose: 200.0 mg/kg/injection, schedule: Q04DX003 (ip), vehicle: saline with Tween-80
[14] = dose: 400.0 mg/kg/injection, schedule: Q01DX009 (ip), vehicle: saline with Tween-80
[15] = dose: 400.0 mg/kg/injection, schedule: Q04DX003 (ip), vehicle: saline with Tween-80
[16] = dose: 100.0 mg/kg/injection, schedule: Q01DX001 (ip), vehicle: saline
[17] = dose: 200.0 mg/kg/injection, schedule: Q01DX001 (ip), vehicle: saline
[18] = dose: 400.0 mg/kg/injection, schedule: Q01DX001 (ip), vehicle: saline
[19] = dose: 50.0 mg/kg/injection, schedule: Q01DX009 (ip), vehicle: Klucel (hydroxypropylcellulose) (HPC)
[20] = dose: 100.0 mg/kg/injection, schedule: Q01DX009 (ip), vehicle: Klucel (hydroxypropylcellulose) (HPC)
[21] = dose: 200.0 mg/kg/injection, schedule: Q01DX009 (ip), vehicle: Klucel (hydroxypropylcellulose) (HPC)
[22] = dose: 100.0 mg/kg/injection, schedule: Q04DX003 (ip), vehicle: Klucel (hydroxypropylcellulose) (HPC)
[23] = dose: 200.0 mg/kg/injection, schedule: Q04DX003 (ip), vehicle: Klucel (hydroxypropylcellulose) (HPC)
[24] = dose: 100.0 mg/kg/injection, schedule: Q01DX009 (ip), vehicle: saline
[25] = dose: 200.0 mg/kg/injection, schedule: Q04DX003 (ip), vehicle: saline

Measured: T/C

CCN(CC)CCCN1c2ccccc2Sc2ccc(Cl)cc21
inactive: dose: 1.56 mg/kg/injection, schedule: Q01DX009 (ip), vehicle: saline 102 % of control | dose: 3.12 mg/kg/injection, schedule: Q01DX009 (ip), vehicle: saline 98 % of control | dose: 6.25 mg/kg/injection, schedule: Q01DX009 (ip), vehicle: saline 96 % of control | [1] 103 % of control | [2] 102 % of control | [3] 109 % of control

Cc1cc(C)[n+](C)c(C)c1
inactive: [2] 96 % of control | [3] 93 % of control | [4] 101 % of control | [5] 93 % of control

CCCCCC(CN(C)C)C(O)CCc1ccc(Cl)c(Cl)c1 (stereo not drawn)
inactive: dose: 25.0 mg/kg/injection, schedule: Q04DX002 (ip), vehicle: Klucel (hydroxypropylcellulose) (HPC) 93 % of control | [6] 93 % of control | [7] 104 % of control | [8] 88 % of control | [9] 117 % of control

Cc1nc2nc(C(F)(F)F)[nH]c2nc1C
inactive: dose: 50.0 mg/kg/injection, schedule: Q01DX009 (ip), vehicle: saline with Tween-80 98 % of control | [10] 96 % of control and 120 % of control | [11] 101 % of control and 102 % of control

CCOc1nc(=O)n(CC(=O)c2ccc(Cl)s2)cc1F
inactive: [10] 105 % of control | [12] 103 % of control | [11] 90 % of control | [13] 103 % of control | [14] 86 % of control | [15] 94 % of control

CCOP1(=O)NC(=O)C=C(C)N1 (stereo not drawn)
inactive: dose: 60.0 mg/kg/injection, schedule: Q04DX002 (ip), vehicle: sodium bicarbonate 102 % of control | dose: 120.0 mg/kg/injection, schedule: Q04DX002 (ip), vehicle: sodium bicarbonate 97 % of control

CC1CCN(C(=O)C(c2ccccc2)c2ccccc2)CC1
inactive: [7] 101 % of control | [8] 86 % of control | [9] 101 % of control

O=C1CCCCC1C(O)(C(=O)c1ccccc1)c1ccccc1 (stereo not drawn)
inactive: [7] 100 % of control | [8] 96 % of control | [9] 100 % of control

CC(C)COC(=O)Nc1cccc(O)c1
inactive: [10] 91 % of control | [11] 90 % of control | [14] 94 % of control

CCCCCc1[nH]c(=O)[nH]c(=O)c1N=Nc1ccccc1
inactive: dose: 100.0 mg/kg/injection, schedule: Q01DX001 (ip), vehicle: saline with Tween-80 98 % of control | dose: 200.0 mg/kg/injection, schedule: Q01DX001 (ip), vehicle: saline with Tween-80 97 % of control | dose: 400.0 mg/kg/injection, schedule: Q01DX001 (ip), vehicle: saline with Tween-80 100 % of control

COC(=O)C(CC(C)C)NC(=O)C(Cc1ccccc1)NC(=O)OCc1ccccc1 (stereo not drawn) (Cbz-Phe-Leu-OMe; configuration not given here)
inactive: [16] 98 % of control | [17] 93 % of control | [18] 91 % of control

COC1OC(COS(=O)(=O)c2ccc(C)cc2)C(N(C)C(C)=O)C1OS(=O)(=O)c1ccc(C)cc1 (stereo not drawn)
inactive: dose: 100.0 mg/kg/injection, schedule: Q01DX001 (ip), vehicle: carboxymethylcellulose (CMC) 96 % of control | dose: 200.0 mg/kg/injection, schedule: Q01DX001 (ip), vehicle: carboxymethylcellulose (CMC) 91 % of control | dose: 400.0 mg/kg/injection, schedule: Q01DX001 (ip), vehicle: carboxymethylcellulose (CMC) 91 % of control

N#Cc1ncc(-c2ccccc2)nc1C#N
inactive: [10] 103 % of control | [11] 100 % of control | [14] 88 % of control

CC(=O)c1cc2ccccc2o1
inactive: dose: 6.25 mg/kg/injection, schedule: Q04DX003 (ip), vehicle: water 103 % of control | dose: 12.5 mg/kg/injection, schedule: Q04DX003 (ip), vehicle: water 109 % of control | [19] 92 % of control | dose: 50.0 mg/kg/injection, schedule: Q04DX003 (ip), vehicle: water 108 % of control | [20] 90 % of control | dose: 100.0 mg/kg/injection, schedule: Q04DX003 (ip), vehicle: water 112 % of control | [21] 95 % of control | dose: 200.0 mg/kg/injection, schedule: Q04DX003 (ip), vehicle: water 123 % of control

CSc1sc2ccc(S(=O)(=O)O)cc2[n+]1C
inactive: [12] 97 % of control | [13] 94 % of control

C1=C(c2ccccc2)CCC1
inactive: [19] 97 % of control | [20] 97 % of control | [22] 97 % of control | [21] 100 % of control | [23] 101 % of control

O=[N+]([O-])c1cccc(CS(=O)(=O)c2ccccc2)c1-c1c(CS(=O)(=O)c2ccccc2)cccc1[N+](=O)[O-]
inactive: dose: 100.0 mg/kg/injection, schedule: Q04DX003 (ip), vehicle: saline sonified 101 % of control | dose: 200.0 mg/kg/injection, schedule: Q04DX003 (ip), vehicle: saline sonified 95 % of control | dose: 400.0 mg/kg/injection, schedule: Q04DX003 (ip), vehicle: saline sonified 94 % of control

CC1C(O)c2ccccc2OC1N1CCOCC1 (stereo not drawn)
inactive: [6] 96 % of control | [7] 100 % of control | [8] 93 % of control

CCOC(=O)CCN(C(=O)Nc1ccccc1)C1CCCCC1
inactive: dose: 100.0 mg/kg/injection, schedule: Q01DX Z (ip), vehicle: methylcellulose (MC) 92 % of control | dose: 200.0 mg/kg/injection, schedule: Q01DX Z (ip), vehicle: methylcellulose (MC) 97 % of control

CC(=O)N(C)N
inactive: [1] 98 % of control | [2] 112 % of control | dose: 25.0 mg/kg/injection, schedule: Q01DX009 (ip), vehicle: saline 103 % of control | [3] 106 % of control | dose: 50.0 mg/kg/injection, schedule: Q01DX009 (ip), vehicle: saline 104 % of control | [4] 106 % of control | [24] 117 % of control | [5] 108 % of control | [25] 105 % of control

OC(c1ccccc1)(c1ccccc1)c1ccc(F)cc1
inactive: [10] 102 % of control | [12] 92 % of control | [11] 101 % of control | [13] 100 % of control | [14] 89 % of control | [15] 87 % of control

CCC1(NS(=O)(=O)c2ccc(N)cc2)C(=O)N(C)C(=O)N(C)C1=O
inactive: [16] 94 % of control | [17] 94 % of control | [18] 91 % of control

O=[N+]([O-])c1ccc(Cl)c(O)c1
inactive: dose: 25.0 mg/kg/injection, schedule: Q01DX009 (ip), vehicle: carboxymethylcellulose (CMC) 108 % of control | dose: 50.0 mg/kg/injection, schedule: Q01DX009 (ip), vehicle: carboxymethylcellulose (CMC) 106 % of control | dose: 100.0 mg/kg/injection, schedule: Q01DX009 (ip), vehicle: carboxymethylcellulose (CMC) 97 % of control

CC(=O)OCC(=O)C1CCC=CC1OC(C)=O (stereo not drawn)
inactive: [24] 105 % of control | [5] 93 % of control | dose: 200.0 mg/kg/injection, schedule: Q01DX009 (ip), vehicle: saline 105 % of control | [25] 91 % of control | dose: 400.0 mg/kg/injection, schedule: Q01DX009 (ip), vehicle: saline 98 % of control | dose: 400.0 mg/kg/injection, schedule: Q04DX003 (ip), vehicle: saline 91 % of control

O=[N+]([O-])c1cc([N+](=O)[O-])c(/C=C/c2ccccc2)c([N+](=O)[O-])c1/C=C/c1ccccc1
inactive: [20] 104 % of control | [22] 97 % of control | [21] 98 % of control | [23] 101 % of control | dose: 400.0 mg/kg/injection, schedule: Q01DX009 (ip), vehicle: Klucel (hydroxypropylcellulose) (HPC) 98 % of control | dose: 400.0 mg/kg/injection, schedule: Q04DX003 (ip), vehicle: Klucel (hydroxypropylcellulose) (HPC) 97 % of control
